The text below walks through data of patent US20140094451A1, “PREVENTIVE OR REMEDY FOR GLAUCOMA” (Kowa Co., Ltd., priority 2005, published 2014).

The test system of assay [1] is rabbits with normal IOP. The following applies: cited from earlier work.
Assay [2] relates to Japanese white rabbits. The assay can be described thus: Ocular hypotensive effect (IOP change from initial IOP) after instillation, alone or in combination. It is filed as in vivo. The following applies: FIG. 2; single drug treatment groups; instillation 50 μL, male JW rabbits. On the procedure:
To examine usefulness of combination use of a Rho kinase inhibitor and an α1 blocker, the ocular hypotensive effects were compared by administering either of these drugs alone or both in combination to laboratory animals. (S)-(−)-1-(4-fluoro-5-isoquinolinesulfonyl)-2-methyl-1,4-homopiperazine-hydrochloride dihydrate was dissolved in physiological saline, and the solution was neutralized (pH 6.0) by adding sodium dihydrogenphosphate and sodium hydroxide to prepare a (S)-(−)-1-(4-fluoro-5-isoquinolinesulfonyl)-2-methyl-1,4-homopiperazine solution at a desired concentration. The commercially available “Eril® S Injection” (Asahi Kasei Pharma) was used as it was. The commercially available “Detantol 0.01% Ophthalmic Solution” (Santen Pharmaceutical Co., Ltd.) was used as it was. The ocular hypotensive effect was examined after the combination use of (S)-(−)-1-(4-fluoro-5-isoquinolinesulfonyl)-2-methyl-1,4-homopiperazine and bunazosin. As a control, the ocular hypotensive effect was also examined after the use of bunazosin alone or (S)-(−)-1-(4-fluoro-5-isoquinolinesulfonyl)-2-methyl-1,4-homopiperazine alone. Similarly, the ocular hypotensive effect was examined after the combination use of hexahydro-1-(5-isoquinolinesulfonyl)-1H-1,4-diazepine and bunazosin. […]

On to `C[C@@H](N)c1ccc(C(=O)Nc2ccnc3[nH]ccc23)cc1` [Y-39983], for which, in assay [1], the “time after instillation from which IOP is lowered” value is 1 h and the “time of maximum ocular hypotensive effect after instillation” value is 2 to 4 h. Also, the “maximum IOP reduction” value in assay [1] (instillation, concentration of 0.10) was 15 mmHg.

On to `CCCC(=O)N1CCCN(c2nc(N)c3cc(OC)c(OC)cc3n2)CC1` [bunazosin], for which the “time after instillation when the ocular hypotensive effect disappeared” value in assay [2] stood at 5 h. The same measure, in the same setting: for `O=S(=O)(c1cccc2cnccc12)N1CCCNCC1` [hexahydro-1-(5-isoquinolinesulfonyl)-1H-1,4-diazepine] the value was 5 h.
